Assay results: patent publication US20040039050A1, “Cryptotanshinone for preventing and alleviating alzheimer's disease” (priority 2001, published 2004)

Legend:
[1] = tested on: hyperammonemia rat model; assay: Blood ammonia reducing experiment (injection); type: in vivo, SD rats; conditions: for Reduction rate: blood ammonia, intraperitoneal for 4 days
Protocol: The animals used in this experiment were 50 healthy male SD rats weighing 250-300 g. They were randomly divided into 5 groups, that is, normal control group, experimental control group (acetamide group), sodium glutamate/acetamide group, Cryptotanshinone/acetamide group and tanshinone IIA/acetamide group. The rats in all those groups except the normal control group were injected intraperitoneally with saline, sodium glutamate injection (with a dose of 410 mg/kg), saline solution of Cryptotanshinone (containing small amount of surface active agent, with a dose of 10 mg/kg), saline solution of tanshinone IIA (containing small amount of surface active agent, with a dose of 10 mg/kg) respectively. 45 min after the injection, the rats in all those groups except normal control group were injected intraperitoneally with 5.5 mmol/kg acetamide. Above injections continued for 4 days. In the 4th day, 30 min after the acetamide injection, blood samples of the rats in each group were collected by eyeball removing method immediately, and processed with the anticoagulant EDTA-Na, then the blood ammonia concentration was determined using conventional method.
(§1) The dose of sodium glutamate in this example and following examples was settled with the reference of its actual clinical dose. The method for determining the blood ammonia concentration in this example and following examples was enzyme-UV method, the instrument used was HITACHI-7170 automatic analyzer, and the kit used was AMMONIA kit. Calculation formula of decrease ratio in Table 1 and following tables was: Decrease rate=[1−(concentration of treating group−concentration of normal control group)/(concentration of experimental control group−concentration of normal control group)]×100%.
Using the same experiment method, 90 min after the acetamide injection at the 4th day, blood samples of the rats in each group were collected by eyeball removing method immediately. The blood ammonia concentration was determined.

[2] = tested on: healthy male mice; assay: Acute toxicity test in mouse; type: in vivo; conditions: intragastric
Source text: The drug was administrated intragastrically.

[3] = Brain tissue entrance experiment; type: in vivo, rats; conditions: intragastric 300 mg/kg/day for 5 days; brain 1 hour after administration on 5th day; chloroform extract
Protocol: Experimental animals were healthy male rats. The drug was continually administrated intragastrically at a dose of 300 mg/kg/day, continued for 5 days. 1 hour after administration on the 5th day, rats were put to death and brains were taken out. The brain tissues were homogenized and then extracted with chloroform.

[4] = tested on: AD rat model; assay: Impaired neuro-behavioral symptoms relieving experiment, Morris water labyrinth; type: in vivo, SD rats; set-up: key: —: −Normal; +Dysmnesia (Number of + indicates the extent of memory impairment, and +++++ represents the most severe case.); +++++ represents the most severe case; conditions: oral 200 mg/kg/day, D-galactose/acetamide rats
Source text: Experimental animals were 40 healthy male SD rats, weight between 250-300 g. They were randomly divided into 4 groups, i.e. normal control group, model control group A (D-galactose/quinolinic acid group), model control group B (D-galactose/acetamide group), and Cryptotanshinone group (D-galactose/acetamide/Cryptotanshinone group). Morris water labyrinth method was used to evaluate the neuro-behavioral symptoms of rats model caused by subacute senium and chemical damage by D-galactose.
Normal control group: routine breeding.
Model control group A (D-galactose/quinolinic acid group): D-galactose was injected subcutaneously (50 mg/kg/day, for 6 weeks) to cause subacute senium in rats. Quinolinic acid (1 μL, containing quinolinic acid 75 nmol) was injected into the rats' bilateral hippocampal gyrus to evidently decrease rats' labyrinth learning and memorizing ability, which served as animal model similar to AD.
Model control group B (D-galactose/acetamide group): D-galactose was injected subcutaneously (50 mg/kg/day, for 6 weeks) to cause subacute senium in rats; acetamide (10 mmol/kg/day) was injected intraperitoneally for 7 continuous days. […] The treated rats were served as animal model similar to AD.
Cryptotanshinone group (D-galactose/acetamide/Cryptotanshinone group):
Simultaneously with subcutaneous injection of D-galactose (50 mg/kg/day, for 6 weeks), Cryptotanshinone was orally administered (the dose was 200 mg/kg/day). 10 mmol/kg acetamide was intraperitoneally injected for 7 continuous days (Cryptotanshinone was orally given at the same time).

[5] = tested on: high-level brain ammonia animal model; assay: Brain tissue ammonia concentration reducing experiment (injection); type: in vivo, SD rats; conditions: for Reduction rate: brain tissue ammonia, intraperitoneal for 4 days, 60 min after acetamide on 4th day; for Brain tissue ammonia concentration: intraperitoneal for 4 days (sodium glutamate 410 mg/kg, Cryptotanshinone 30 mg/kg), brain 60 min after acetamide on 4th day
Source text: as §1
(§2) Experimental animals were 50 healthy male SD rats, weight between 250-300 g. They were randomly divided into 4 groups, i.e. normal control group, experimental control group ([…]), sodium glutamate/acetamide group, and Cryptotanshinone/acetamide group. The rats in all those groups except the normal control group were injected intraperitoneally with saline, sodium glutamate solution (with a dose of 410 mg/kg), and saline solution of Cryptotanshinone (containing small amount of surface active agent, with a dose of 30 mg/kg) respectively. 45 min after the injection, the rats in all those groups except the normal control group were injected intraperitoneally with 5.5 mmol/kg acetamide. Above injections continued for 4 days. In the 4th day, 60 min after the acetamide injection, the rats of each group were put to death, and brain tissue samples were taken out immediately and homogenized under low temperature condition, then the ammonia concentration in brain tissue was determined by using glutamate dehydrogenase assay.

[6] = tested on: high-level brain ammonia animal model; assay: Brain tissue ammonia concentration reducing experiment (oral); type: in vivo, SD rats; conditions: for Reduction rate: brain tissue ammonia, oral for 4 days, 60 min after acetamide on 4th day; for Brain tissue ammonia concentration: oral for 4 days (sodium glutamate 200 mg/kg, Cryptotanshinone 150 mg/kg), brain 60 min after acetamide on 4th day
Source text: as §1
as §2, with “The rats in all those groups except the normal control group were injected intraperitoneally with saline, sodium glutamate solution (with a dose of 410 mg/kg), and saline solution of Cryptotanshinone (containing small amount of surface active agent, with a dose of 30 mg/kg) respectively.” left out
The same experiment condition in example 6 was adopted except Sodium Glutamate oral taking (the dose was 200 mg/kg) instead of Sodium Glutamate injection and Cryptotanshinone oral taking (dose 150 mg/kg) instead of Cryptotanshinone injection. In the 4th day, 60 min after the acetamide injection, the rats of each group were put to death and brain tissue samples were taken out immediately. Then, the ammonia concentration in brain tissue was determined.

[7] = tested on: healthy male mice; assay: 30 days toxicity test in mouse; type: in vivo; conditions: intragastric 200 mg/kg day for 30 days
Protocol: The drug was continually administrated intragastrically for 30 days with dose of 200 mg/kg day.

[8] = rats
[9] = tested on: hyperammonemia rat model; assay: Blood ammonia reducing experiment (oral); type: in vivo, SD rats

C[C@H]1COC2=C1C(=O)C(=O)c1c2ccc2c1CCCC2(C)C [Cryptotanshinone]
Reduction rate ([1]; 30 min after acetamide on 4th day): 60%
LD50 [2]: > 30 g 1 kg
Toxic symptom or death ([2]; dose added to 1.5 g/kg): no toxic symptom or death
Cryptotanshinone detected in brain tissue with HPLC [3]: Significant amount
AD Symptom-Dysmnesia Synthetic Index ([4]; Day 1 after chemical damage): —
AD Symptom-Dysmnesia Synthetic Index ([4]; Day 2 after chemical damage): —
AD Symptom-Dysmnesia Synthetic Index ([4]; Day 3 after chemical damage): —
AD Symptom-Dysmnesia Synthetic Index ([4]; Day 4 after chemical damage): —
AD Symptom-Dysmnesia Synthetic Index ([4]; Day 5 after chemical damage): +
AD Symptom-Dysmnesia Synthetic Index ([4]; Day 6 after chemical damage): +
AD Symptom-Dysmnesia Synthetic Index ([4]; Day 7 after chemical damage): +
Reduction rate [5]: 60%
Brain tissue ammonia concentration [5]: 280 nmol/g
Reduction rate [6]: 45%
Brain tissue ammonia concentration [6]: 310 nmol/g
Change in growth and development, hematopoiesis function, and biochemical index [7]: no apparent abnormal change or toxic reaction
Death of the tested mice [7]: no death
Pathology of major organs (anatomical and tissue microscopy inspection) [7]: No pathology change
Content of Cryptotanshinone in tissues [8]: highest in blood and brain tissue

Cc1cccc2c3c(ccc12)C1=C(C(=O)C3=O)[C@@H](C)CO1 [Dihydrotanshinone I]
Reduction rate ([1]; 90 min after acetamide on 4th day): 100%
Blood ammonia concentration ([1]; intraperitoneal for 4 days (sodium glutamate 410 mg/kg, others 10 mg/kg), blood 90 min after acetamide on 4th day): 110 µmol/L
Reduction rate ([9]; blood ammonia, oral for 4 days, 90 min after acetamide on 4th day): 97%
Blood ammonia concentration ([9]; oral for 4 days (sodium glutamate 200 mg/kg, others 100 mg/kg), blood 90 min after acetamide on 4th day): 120 µmol/L

N[C@@H](CCC(=O)[O-])C(=O)[O-].[Na+].[Na+] [Sodium Glutamate, reference compound]
Reduction rate [5]: 28%
Brain tissue ammonia concentration [5]: 350 nmol/g
Reduction rate [6]: 19%
Brain tissue ammonia concentration [6]: 370 nmol/g
